Values joined by “and” are separate entries in the source; they are usually repeats but may differ in a detail not shown here. Equal entries are not always repeated.
Columns and labels:
[1] = tested on: PD-L1 expression in A2780 and LLC cells; assay: PD-L1 expression (western blot, flow cytometry, qRT-PCR) in A2780 and LLC cells; assay type: cell-based, human, mouse; settings: 72 h
Experimental: For surface marker detection, tumor single-cell suspensions and spleen lymphocytes were incubated at 4 °C for 30 min in PBS with 0.1% Fixable Viability Dye (eBioscience 65-0863-14). Cells were washed and incubated in staining buffer (PBS with 1% FBS) with surface marker antibodies, the dilution ratio of all flow antibodies was 1:200 (BioLegend, CD3-APC 100235, CD3-PE 100205, CD4-FITC 100405, CD8-APC 100711, CD8-PE 100707, CD45-APC 103112, PD-L1-PE 124307, adsorbed secondary antibody-APC, and CD69-PE 104511). The cells were then washed and resuspended in staining buffer for flow cytometry. For cytokine detection, tumor single-cell suspensions and spleen lymphocytes were incubated in RPMI-1640 with 10% FBS and 0.2% Cell Stimulation Cocktail (plus protein transport inhibitors) (eBioscience 00-4975-93) at 37 °C for 12 h. […] Flow cytometry was performed on ACEA NovoCyte, and the data were analyzed using NovoExpress. […]
Total RNA was isolated using TRIzol reagent (Invitrogen, 15596026) according to the manufacturer’s protocol. […] Quantitative real-time PCR analysis was performed by mixing 10 μl SYBR, 0.4 μM forward primer, 0.4 μM reverse primer, 1 μl cDNA, and 8.2 μl distilled water per sample with Top Green qPCR SuperMix (Transgene, AQ601-04) by the manufacturer’s protocols. […]

[2] = tested on: NAD+ content of LLC OE NAMPT/PD-L1 tumor tissue; assay: NAD+ in tumor tissue, LLC OE NAMPT/PD-L1 mouse model; assay type: in vivo; settings: 20 mg/kg; tumor tissue
A20 tumors = assay: A20 tumor-bearing Balb/c mice; assay type: in vivo, mouse; settings: A20 model; FK866 20 mg/kg, LZFPN-90 20 and 40 mg/kg i.p.
[3] = tested on: LLC OE NAMPT/PD-L1 tumors; assay: LLC OE NAMPT/PD-L1 tumor-bearing C57BL/6 mice; assay type: in vivo, mouse; settings: 20 mg/kg i.p.; 14 days; Fig 7B

| Compound | effect on PD-L1 expression [1] | NAD+ in 20 mg tissue [2] | effect on mouse organ or body weight (A20 tumors) | TIR / tumor growth inhibition (TGI) rate at endpoint [3] [%] |
| --- | --- | --- | --- | --- |
| CC(NC(=O)c1ccccc1/N=C/c1c(O)ccc2ccccc12)c1ccccc1 (centres unmarked) [Sirtinol] | PD-L1 was upregulated at both the mRNA and protein levels |  |  |  |
| O=C(/C=C/c1cccnc1)NCCCCC1CCN(C(=O)c2ccccc2)CC1 [FK866, reference compound] | upregulated global and membrane PD-L1 expression | 98.7342 and 119.831 and 110.802 | caused a reduction in the body weight of the mice | 43.62 |
